Source: US10604585B2, “Modulation of PTPRA to treat arthritis” (La Jolla Institute for Allergy & Immunology, priority 2014, dated 2020)

Tests used:
RA FLS [1] = experiment: RA FLS induction of gene expression in response to TNF and IL-1β (qPCR, ELISA); type: cell-based, human; settings: for TNF- and IL-1-induced production of CXCL10 / TNF- and IL-1-induced production of IL6 / TNF- and IL-1-induced production of MMP13: 50 ng/ml TNFα or 2 ng/ml IL-1β with inhibitor for 24 hr
Protocol: FLS were obtained from the UCSD CTRI Biorepository. Each line was previously obtained from discarded synovial tissue of a different patient with RA at the time of synovectomy, as described previously (21). The diagnosis of RA conformed to American College of Rheumatology 1987 revised criteria(22). FLS were cultured in DMEM (Mediatech, Manassas, Va.) with 10% fetal bovine serum (FBS, Omega Scientific, Tarzana, Calif.), 2 mM L-glutamine, […] gentamicin, 100 units/ml of penicillin and […] streptomycin (Life Technologies, Carlsbad, Calif.) at 37° C. in a humidified 5% CO2 atmosphere. For all experiments, FLS were used between passages 4-10, and cells were synchronized in 0.1% FBS (serum-starvation media) for 48 hours prior to analysis or functional assays.
RNA was extracted using RNeasy Kits (Qiagen, Valencia, Calif.) or Trizol (Life Technologies). For lysis of FLS, adherent cells were first washed in PBS and then lysed in the culture plate. cDNA was synthesized using the SuperScript® III First-Strand Synthesis SuperMix (Life Technologies). qPCR was performed using a Roche Lightcycler 480 (Indianapolis, Ind.), with primer assays from SABiosciences/Qiagen. Reactions were measured in triplicate and data was normalized to the expression levels of the house-keeping gene glyceraldehyde 3-phosphate dehydrogenase (GAPDH) or RNA Polymerase II (RPII) (23).
(§1) FLS were treated with 2.5 uM PMO (Gene Tools, Philomath, OR) for 7 days. PMO was replaced in fresh culture medium after 3 days and in serum-starvation medium after 5 days.
Secreted human IL-6 and chemokine (C-X-C motif) ligand 10 (CXCL10) were measured using ELISAs from Biolegend (San Diego, Calif.).

RA FLS [2] = settings: reference (40); cited from earlier work
RA FLS [3] = experiment: Death of RA FLS on treatment with FAK inhibitor; type: cell-based, human; settings: at the concentrations used in these experiments
RA FLS [4] = experiment: Western blotting of RA FLS lysates (SRC, FAK, MAPK, AKT, NF-κB signaling); type: cell-based, human; settings: 10 μM inhibitor vs DMSO
RA FLS [5] = experiment: Survival and apoptosis assay (Annexin V / PI, FACS); type: cell-based, human; settings: sera-starvation media or in the presence of PDGF (50 ng/ml, 24 hr); FIG. 2C
Protocol: as §1
Following treatment with PMO, RA FLS were washed and incubated for an additional 24 hoursr in serum-starvation media. Adherent and non-adherent cells were collected and stained with Annexin V-Alexa Fluor® 647 and propidium iodide (PI) according to the manufacturer's instructions (Biolegend, San Diego, Calif.). Cell fluorescence was assessed by FACS using a BD LSR-II (BD Biosciences), and counts and percentages of live (Annexin V−PI−), early apoptotic (Annexin V+PI−), or late apoptotic/necrotic (Annexin V+PI+) cells were obtained. Data was analyzed for statistical significance using the Chi-square test for independence.

RA FLS [6] = experiment: Spreading and adhesion assay on fibronectin-coated coverslips; type: cell-based, human; settings: 5% FBS, FIG. 2D
Protocol: as §1
Following treatment with PMO, equal numbers of live RA FLS were re-suspended in FLS medium containing 5% FBS and allowed to adhere onto coverslips coated with 20 μg/ml fibronectin (FN) at 37° C. for 15, 30 and 60 minutes. Cells were fixed in 4% para-formaldehyde for 5 minutes, permeabilized in 0.2% Triton X-100 for 2 minutes, and stained with 5 U/ml Alexa Fluor® 568 (AF 568)-conjugated phalloidin and 2 μg/ml Hoechst for 20 minutes (Life Technologies). Samples were imaged with an Olympus FV10i Laser Scanning Confocal Microscope (Olympus, Center Valley, Pa.). Using the FV10i acquisition software, each coverslip was separated into four nine-paneled mega-images. Each panel (1024×1024) was acquired with a 10× objective and then stitched together, through a 10% overlap, with the Olympus FluoView 1000 imaging software. Total cell number and cell areas for each panel were calculated using Image Pro Analyzer software (Media Cybernetics, Rockville, Md.).

RA FLS [7] = experiment: Western blotting of RA FLS lysates (SRC, FAK, MAPK, AKT, NF-κB signaling); type: cell-based, human
Protocol: as §1
Adherent cells were washed in PBS and then lysed in the culture plate in RIPA buffer (25 mM Tris-HCl pH 7.6, 150 mM NaCl, 1% NP-40, 1% sodium deoxycholate, 0.1% SDS) containing 1 mM phenylmethanesulfonyl fluoride, 10 ng/ml aprotinin, 10 μg/ml leupeptin, 10 μg/ml soybean trypsin inhibitor, 10 mM sodium orthovanadate, 5 mM sodium fluoride and 2 mM sodium pyrophosphate. Protein concentration of cell lysates was determined using the Pierce BCA Protein Assay Kit (Thermo Scientific, Rockford, Ill.).

[8] = 2.5 μM PMO for 7 d, then 2 ng/ml IL-1β for 24 hr, vs Ctl PMO, FIG. 1D
[9] = 2.5 μM PMO for 7 d, then 50 ng/ml TNF for 24 hr, vs Ctl PMO, FIG. 1D
[10] = RA FLS, 2.5 μM PMO for 7 d, FIG. 1D
[11] = RA FLS, RPTPα knockdown with PMO, FIG. 3B, 3C
[12] = basal conditions, PTPRA knockdown
[13] = unstimulated PMO-treated RA FLS, FIG. 3D
[14] = 2.5 μM PTPRA_2 PMO for 7 d, then 50 ng/ml TNF or 2 ng/ml IL-1 for 24 hr, FIGS. 8A-8B

In the case of `NC1(c2ccc(-c3nc4ccn5c(=O)[nH]nc5c4cc3-c3ccccc3)cc2)CCC1` [MK2206, reference compound], the “IL-1β-induced expression of CXCL10” value (RA FLS [1]; RA FLS, 2 ng/ml IL-1β with inhibitor for 24 hr, vs DMSO, qPCR, FIG. 4A) is reported as “increased”, the “TNF- and IL-1-induced production of CXCL10” value (RA FLS [1]; RA FLS, vs DMSO, qPCR, FIG. 4A) is reported as “did not dampen” and the “TNF- and IL-1-induced production of IL6” value (RA FLS [1]; RA FLS, vs DMSO, qPCR, FIG. 4A) is reported as “increased”. For the same compound, the “TNF- and IL-1-induced production of MMP13” value (RA FLS [1]; RA FLS, vs DMSO, qPCR, FIG. 4A) was “did not dampen” and the “RA FLS migration and invasiveness” value (RA FLS [2]) was “attenuate”.

In the case of `CS(=O)(=O)c1cccc(CNc2nc(Nc3ccc4c(c3)CCC(=O)N4)ncc2C(F)(F)F)c1` [PF573228], the “TNF- and IL-1-induced production of CXCL10” value (RA FLS [1]; RA FLS, vs DMSO, qPCR, FIG. 4A) is reported as “significantly decreased”, the “TNF- and IL-1-induced production of IL6” value (RA FLS [1]; RA FLS, vs DMSO, qPCR, FIG. 4A) is reported as “significantly decreased” and the “TNF- and IL-1-induced production of MMP13” value (RA FLS [1]; RA FLS, vs DMSO, qPCR, FIG. 4A) is reported as “significantly decreased”. The “death of RA FLS” value (RA FLS [3]) was “does not cause death”, the p38-T180/Y185 phosphorylation (RA FLS [4]; 50 ng/ml TNF or 2 ng/ml IL-1β for 30 min) was “no effect” and the “TNF- and IL-1β-induced phosphorylation of JNK-T183/Y185” value (RA FLS [4]; 50 ng/ml TNF or 2 ng/ml IL-1β for 30 min, FIG. 4B) was “impaired”. For the same compound, the FAK-Y397 phosphorylation (RA FLS [4]; FIG. 4B) was “impaired”.

With “PTPRA PMO: cell-permeable antisense morpholino oligo (PMO) targeting PTPRA; probably SEQ ID NO:4, 5′ GACATTAAGGAATGCCTTACCCACA 3′ (assignment not stated) (morpholino, cell-permeable, chemistry not fully specified)” the “RA FLS production of CXCL10 in response to IL-1β” value (RA FLS [1]; [8]) was “significantly reduced”, the “RA FLS production of IL6 in response to IL-1β” value (RA FLS [1]; [8]) was “significantly reduced” and the “RA FLS production of MMP3 in response to IL-1β” value (RA FLS [1]; [8]) was “significantly reduced”. The “RA FLS production of MMP13 in response to IL-1β” value (RA FLS [1]; [8]) was “significantly reduced”, the “RA FLS production of CXCL10 in response to TNF” value (RA FLS [1]; [9]) was “significantly reduced” and the “RA FLS production of MMP13 in response to TNF” value (RA FLS [1]; [9]) was “significantly reduced”. The “expression of IL-1β receptor (IL1R)” value (RA FLS [1]; [10]) was “increased”, the “expression of TNF receptor (TNFRSF1A)” value (RA FLS [1]; [10]) was “no effect” and the “apoptosis compared to control-treated cells” value (RA FLS [5]) was “significantly increased”. For the same compound, the “spreading on fibronectin-coated coverslips” value (RA FLS [6]; cell area after 15, 30 and 60 min) was “impaired spreading”, the “adherence of live cells to fibronectin-coated coverslips” value (RA FLS [6]; cells per field after 15 min) was “less adherent” and the “TNF- and IL-1β stimulated phosphorylation of AKT-S473” value (RA FLS [7]; RA FLS, PMO treatment, FIGS. 3B-3C) was “reduced”. For the same compound, the “TNF- and IL-1β-stimulated phosphorylation of JNK (T183/Y185)” value (RA FLS [7]; [11]) was “impaired”, the “TNF- and IL-1β-stimulated phosphorylation of p38-T180/Y182” value (RA FLS [7]; [11]) was “impaired” and the “phosphorylation of FAK-Y397” value (RA FLS [7]; RA FLS, RPTPα knockdown with PMO, FIG. 3C) was “reduced”. For the same compound, the “proteolytic processing of NFκB subunit p100 (ratio of p52:p100)” value (RA FLS [7]; [12]) was “unaffected”, the “proteolytic processing of NFκB subunit p105 (ratio of p50:p105)” value (RA FLS [7]; [12]) was “unaffected” and the “phosphorylation of SRC-Y527” value (RA FLS [7]; resting RA FLS, RPTPα knockdown with PMO, FIG. 3A) was “increased”. For the same compound, the “levels of IκBα following 10 minutes post-stimulation, Ctl vs PTPRA PMO-treated cells” value (RA FLS [7]; stimulation with TNF or IL-1β, FIG. 3B, 3C) was “similar”, the “basal phosphorylation of IκB kinase (IKK)-αβ on Ser176/180” value (RA FLS [7]; [13]) was “non-significant trend towards decreased” and the “basal phosphorylation of NFκB subunit p65 on Ser536” value (RA FLS [7]; [13]) was “non-significant trend towards decreased”. The “levels of IκBα protein in resting RA FLS” value (RA FLS [7]; unstimulated, PMO treatment) was “modest decrease”.

In the case of “second PTPRA-targeted PMO: second PTPRA-targeted PMO of a different sequence; probably SEQ ID NO:5, 5′ GTGTCTCATCTGAAATCAAGACAAC 3′ (assignment not stated) (morpholino, cell-permeable, chemistry not fully specified)”, the “effect on CXCL10 (reduced production, protein in supernatants by ELISA)” value (RA FLS [1]; [14]) is reported as “confirmed” and the “effect on IL-6 (reduced production, protein in supernatants by ELISA)” value (RA FLS [1]; [14]) is reported as “confirmed”.
